ER-phagy suppression data for 14 compounds are collected here from ChEMBL document CHEMBL5724696, “Autophagy assay results for EUbOPEN Chemogenomics Library” (2024).

Values joined by “and” are separate entries in the source; they are usually repeats but may differ in a detail not shown here. Equal values may be shown once.

The test system of assay [1] is U2OS. Nature of the assay: (§1) Here: values are normalized to the positive (DMSO; basel flux = defined as 100% suppression) and negative (250nM Torin1; mTOR inhibitor; maximal inducer of autophagy defined as 0% suppression) control compounds and represented as % of ER-phagy suppression. […] The impact of autophagy induction on cells is complex and depends on the affected target. […] Of note, treatment concentrations may be sub-optimal for specific compounds, leading to false negative annotations. It counts as functional, Homo sapiens. The settings on record: Compound Concentration 1 uM, Culturing Media DMEM, 1 % Penicillin/Streptomycin, 10% Fetal bovin serum Add-On: blasticidin, Screening Media Control DMEM, 10% Fetal bovin serum Add-On: 1 µg/ml Doxycyclin, Screening Media Samples DMEM.

The subject of assay [2] is U2OS. The assay is described as §1. It counts as functional, Homo sapiens. The settings on record: Compound Concentration 1 uM, Culturing Media DMEM, 1 % Penicillin/Streptomycin, 10% Fetal bovin serum Add-On: blasticidin, Screening Media Control DMEM, 10% Fetal bovin serum Add-On: 1 µg/ml Doxycyclin, Screening Media Samples DMEM. The source holds these as a separate data set.

Setting [3] is: Timepoint 12 hours, 10% Fetal bovin serum Add-On: 1 µg/ml Doxycyclin 250nM Torin1.
The mark [4] stands for this setting: Timepoint 24 hours, 10% Fetal bovin serum Add-On: 1 µg/ml Doxycyclin 250nM Torin1.
[5] abbreviates: Timepoint 36 hours, 10% Fetal bovin serum Add-On: 1 µg/ml Doxycyclin 250nM Torin1.
Where [6] appears, read: Timepoint 54 hours, 10% Fetal bovin serum Add-On: 1 µg/ml Doxycyclin 250nM Torin1.
The mark [7] stands for this setting: Timepoint 60 hours, 10% Fetal bovin serum Add-On: 1 µg/ml Doxycyclin 250nM Torin1.
Where [8] appears, read: Timepoint 12 hours, 10% Fetal bovin serum Add-On: 1 µg/ml Doxycyclin 250nM Torin1, 12 h, 1 µM.
Where [9] appears, read: Timepoint 24 hours, 10% Fetal bovin serum Add-On: 1 µg/ml Doxycyclin 250nM Torin1, 24 h, 1 µM.
The mark [10] stands for this setting: Timepoint 36 hours, 10% Fetal bovin serum Add-On: 1 µg/ml Doxycyclin 250nM Torin1, 36 h, 1 µM.

Turning to `Cn1cc(C2=C(c3cn(C4CCN(Cc5ccccn5)CC4)c4ccccc34)C(=O)NC2=O)c2ccccc21` [ENZASTAURIN], the ER-phagy suppression with U2OS [1] (setting [3]) was 5.0599%; in the assay with U2OS [1] (setting [4]), -2.39%; in the assay with U2OS [1] (setting [5]), -11.3748%; with U2OS [1] (setting [6]), -3.56%; in the assay on U2OS [2] (setting [3]), 35.0144%; in the assay on U2OS [2] (setting [4]) it was 19.4915%. Moreover, the results for the ER-phagy suppression in the assay on U2OS [2] (setting [5]) and in the assay on U2OS [2] (setting [7]) were 15.6229% and 9.495%, respectively.

Regarding `C[C@H](NC(=O)Nc1cc2[nH]ncc2c(CO)n1)c1ccccn1` [ERKi-NC], the ER-phagy suppression in the assay with U2OS [1] (setting [3]) was 16.3207%; in the assay on U2OS [1] (setting [4]), -4.124%; with U2OS [1] (setting [5]), -11.6627%; with U2OS [1] (setting [6]) it was -9.3851%; in the assay with U2OS [2] (setting [3]) it was -23.4889%; with U2OS [2] (setting [4]), -22.8439%. In addition, the figures for the ER-phagy suppression with U2OS [2] (setting [5]) and in the assay with U2OS [2] (setting [7]) were -26.5362% and -20.3879%, respectively.

In the case of `C[C@@H](NC(=O)Nc1cc2[nH]ncc2c(CO)n1)c1ccccc1` [ERKi], the ER-phagy suppression with U2OS [1] (setting [3]) was 6.504%; in the assay with U2OS [1] (setting [4]), -3.07%; with U2OS [1] (setting [5]), -4.694%; with U2OS [1] (setting [6]) it was -0.09872%; in the assay with U2OS [2] (setting [3]) it was -20.6264%; with U2OS [2] (setting [4]), 1.384%. Further, the ER-phagy suppression in the assay on U2OS [2] (setting [5]) was -7.522%; in the assay on U2OS [2] (setting [7]) it was -12.4094%.

With `CN(C)CCCn1cc(C2=C(c3c[nH]c4ccccc34)C(=O)NC2=O)c2ccccc21` [GF-109203], the ER-phagy suppression with U2OS [1] (setting [3]) was 134.318%; with U2OS [1] (setting [4]) it was 101.39%; in the assay on U2OS [1] (setting [5]) it was 90.0252%; in the assay on U2OS [1] (setting [6]) it was 89.0171%; with U2OS [2] (setting [3]), 176.072%; in the assay on U2OS [2] (setting [4]) it was 134.347%. Moreover, the values for the ER-phagy suppression with U2OS [2] (setting [5]) and in the assay with U2OS [2] (setting [7]) were 114.591% and 104.135%, respectively.

In the case of `O=C(O)c1ccc(-c2c[nH]c3ncc(-c4ccccc4)cc23)cc1C1CCCC1` [GSK-650394], the ER-phagy suppression in the assay on U2OS [1] (setting [3]) is 10.3251%; in the assay on U2OS [1] (setting [4]), -3.71%; in the assay on U2OS [1] (setting [5]), -12.9295%; in the assay with U2OS [1] (setting [6]) it was -11.6174%; in the assay on U2OS [2] (setting [3]), -3.529%; in the assay on U2OS [2] (setting [4]), -12.5069%. Moreover, the ER-phagy suppression with U2OS [2] (setting [5]) worked out at 3.383%; in the assay with U2OS [2] (setting [7]) it was 9.397%.

On to `O=c1cc(-c2cccc3c2Sc2ccccc2S3)oc(N2CCOCC2)c1` [KU-55933], for which the ER-phagy suppression with U2OS [1] (setting [3]) was 6.867%; with U2OS [1] (setting [4]) it was -4.052%; with U2OS [1] (setting [5]), -12.4961%; in the assay on U2OS [1] (setting [6]) it was -6.9587%; in the assay on U2OS [2] (setting [3]), 55.4841%; with U2OS [2] (setting [4]), 58.138%. The values for the ER-phagy suppression in the assay with U2OS [2] (setting [5]) and in the assay with U2OS [2] (setting [7]) were 50.8459% and 57.1444%, respectively.

Regarding `Cc1cnc(-c2cnc(NCCNc3ccc(C#N)cn3)nc2-c2ccc(Cl)cc2Cl)[nH]1` [LADUVIGLUSIB], the ER-phagy suppression in the assay with U2OS [1] (setting [3]) is 16.4928%; in the assay with U2OS [1] (setting [4]), 17.774%; in the assay with U2OS [1] (setting [5]), 23.5271%; in the assay with U2OS [1] (setting [6]), 35.0421%; with U2OS [2] (setting [3]) it was 40.8879%; in the assay with U2OS [2] (setting [4]) it was 29.9628%. In addition, the ER-phagy suppression with U2OS [2] (setting [5]) stood at 22.9027%; with U2OS [2] (setting [7]), 26.8731%.

Regarding `O=C(O)[C@]1(Cc2cccc(Nc3nccs3)n2)CC[C@@H](Oc2cccc(Cl)c2F)CC1` [MK-5108], the ER-phagy suppression was -21.8455% and -0.3871% in the assay with U2OS [1] (setting [8]); -36.5962% and -17.27% in the assay with U2OS [1] (setting [9]); -35.461% and -24.0375% in the assay with U2OS [1] (setting [10]); -31.7232% and -12.4423% with U2OS [1] (Timepoint 54 hours, 10% Fetal bovin serum Add-On: 1 µg/ml Doxycyclin 250nM Torin1, 54 h, 1 µM); 0.5036% and -6.3832% in the assay with U2OS [2] (setting [8]); -3.155% and -11.7886% in the assay on U2OS [2] (setting [9]). For the same compound, the ER-phagy suppression in the assay with U2OS [2] (setting [10]) is -0.3659% and -12.8084%; with U2OS [2] (Timepoint 60 hours, 10% Fetal bovin serum Add-On: 1 µg/ml Doxycyclin 250nM Torin1, 60 h, 1 µM), 7.072% and -14.3125%.

Turning to `C[C@@H]1CN(c2cc(-c3nn(C)c4ccc(OC5(C)CC5)cc34)ncn2)C[C@H](C)O1` [MLi-2-NC], the ER-phagy suppression in the assay on U2OS [1] (setting [3]) was 6.526%; in the assay on U2OS [1] (setting [4]), -15.2571%; in the assay with U2OS [1] (setting [5]), -21.814%; with U2OS [1] (setting [6]) it was -27.1974%; in the assay on U2OS [2] (setting [3]), 30.6608%; with U2OS [2] (setting [4]), 32.7197%. The figures for the ER-phagy suppression with U2OS [2] (setting [5]) and with U2OS [2] (setting [7]) were 14.6999% and 6.822%, respectively.

In the case of `C[C@@H]1CN(c2cc(-c3n[nH]c4ccc(OC5(C)CC5)cc34)ncn2)C[C@H](C)O1` [MLi-2], the ER-phagy suppression in the assay on U2OS [1] (setting [3]) is listed as 2.807%; in the assay on U2OS [1] (setting [4]) it was -15.8401%; with U2OS [1] (setting [5]), -22.331%; in the assay on U2OS [1] (setting [6]) it was -20.0591%; with U2OS [2] (setting [3]) it was 9.792%; in the assay with U2OS [2] (setting [4]) it was 2.978%. Besides, the ER-phagy suppression in the assay on U2OS [2] (setting [5]) is listed as -16.0797%; with U2OS [2] (setting [7]) it was -15.9794%.

As to `Cc1ccc(-c2cnc([C@@]3(O)CC[C@H](C(=O)O)C(C)(C)C3)s2)cc1Nc1cccc(C(F)(F)F)n1` [MRL-SYKi-NC], the ER-phagy suppression in the assay with U2OS [1] (setting [3]) is -2.6288%; in the assay with U2OS [1] (setting [4]) it was -19.3711%; in the assay on U2OS [1] (setting [5]), -27.7592%; with U2OS [1] (setting [6]), -26.2542%; in the assay on U2OS [2] (setting [3]), -10.2062%; in the assay on U2OS [2] (setting [4]) it was -4.2474%. Further, the figures for the ER-phagy suppression in the assay with U2OS [2] (setting [5]) and in the assay on U2OS [2] (setting [7]) were -12.4056% and -6.238%, respectively.

Turning to `Cc1cc(Nc2nccc(C)n2)cc(-c2cnc([C@@]3(O)CC[C@H](C(=O)O)C(C)(C)C3)s2)c1` [MRL-SYKi], the ER-phagy suppression with U2OS [1] (setting [3]) is given as -2.1095%; with U2OS [1] (setting [4]) it was -20.7857%; with U2OS [1] (setting [5]), -24.9988%; in the assay on U2OS [1] (setting [6]), -19.5267%; with U2OS [2] (setting [3]) it was -8.621%; with U2OS [2] (setting [4]), -15.4814%. In addition, the ER-phagy suppression in the assay with U2OS [2] (setting [5]) is on record as -12.3884%; in the assay on U2OS [2] (setting [7]), -21.2275%.

On to `CN(c1ccnc(CNc2nc(Nc3ccc4c(c3)CC(=O)N4)ncc2C(F)(F)F)n1)S(C)(=O)=O` [PF-00911705], for which the ER-phagy suppression is listed as 20.0554% in the assay with U2OS [1] (setting [3]); 26.0373% in the assay with U2OS [1] (setting [4]); 39.3297% in the assay on U2OS [1] (setting [5]); 54.466% in the assay with U2OS [1] (setting [6]); 7.113% with U2OS [2] (setting [3]); 19.7718% in the assay with U2OS [2] (setting [4]). In addition, the ER-phagy suppression in the assay on U2OS [2] (setting [5]) was 14.8623%; in the assay with U2OS [2] (setting [7]), 9.977%.

For `CC(=O)NCC(=O)N1[C@@H]2CC[C@H]1c1ccc(Nc3ncc(C(F)(F)F)c(NC4CCC4)n3)cc12` [PF-03814735], the ER-phagy suppression with U2OS [1] (setting [3]) was -4.576%; in the assay with U2OS [1] (setting [4]), -22.3849%; with U2OS [1] (setting [5]), -35.8376%; in the assay with U2OS [1] (setting [6]), -44.2787%; with U2OS [2] (setting [3]), 2.1297%; in the assay on U2OS [2] (setting [4]), 18.4214%. The ER-phagy suppression in the assay on U2OS [2] (setting [5]) was 21.3987%; with U2OS [2] (setting [7]), 29.5902%.
